Laboratory results taken from patent US6664231B1, “Anti-fungal peptides” (priority 1993, dated 2003).
Like-named read-outs stand apart in the source and are kept apart here.

Columns and labels:
Candida lusitaniae = experiment: Radial diffusion assay, Candida species (Table 2); format: cell-based
Experimental: (§1) The anti-fungal activity of Domain III derived peptides was also evaluated in vitro against a variety of fungal species, including Candida glabrata, Candida krusei, Candida lusitaniae, Candida parapsilosis, and Candida tropicalis. For these experiments, one colony of each of the above-listed Candida strains was picked from a Sabouraud's dextrose agar (SDA) plate and inoculated into 5 mL of Sabouraud's dextrose broth (SDB, 2% dextrose and 1% neopeptone) or, for C. krusei, Yeast Malt broth (YM, Becton Dickenson, Cockeysville, Md., cat no. BL 11405) in 12 mL polyproplyene snap-cap tubes. The tube cultures were incubated overnight with shaking at 37° C.
(§2) Cultures were harvested when the OD570 of a 1:10 dilution was greater than or equal to the following values: 0.083 for Candida glabrata, 0.154 for Candida krusei, 0.117 for Candida lusitaniae, 0.076 for Candida parapsilosis, and 0.192 for Candida tropicalis. Cells were centrifuged for 7 minutes in an Eppendorf microfuge at 3,000 rpm (about 1,500 g). The cell pellet was resuspended in 1 mL PBS and approximately 1×10^7 cells in about 0.5 mL were added to 10 mL of cooled underlay agar (3% SBD, 1% agarose, 0.02% Tween 20, 10 mM sodium phosphate buffer, pH 7.4 at about 45° C.). The suspension was poured into square petri plates, allowed to solidify, and wells cut as described above.
(§3) Peptides were two-fold serially diluted with D-PBS from about 20 μL of a starting concentration of approximately 1 mg/mL. Five μL of peptide dilution were added per well and allowed to diffuse for at least about 30 minutes into the agar at […] (to allow complete diffusion). Then 10 mL of molten overlayer agarose (6% SDB, 1% agarose, 10 mM sodium phosphate buffer, pH 7.4 at about 45° C.) were added and the plates were incubated inverted at […] overnight. Plates were stained with a dilute Coomassie solution, inhibition zones were measured with calipers and net areas were calculated, then converted to pmole values by PROBIT analysis.

Candida krusei = experiment: Radial diffusion assay, Candida species (Table 2); format: cell-based
Experimental: as §1, §2, §3

Candida parapsilosis = experiment: Radial diffusion assay, Candida species (Table 2); format: cell-based
Experimental: as §1, §2, §3

Candida glabrata = experiment: Radial diffusion assay, Candida species (Table 2); format: cell-based
Experimental: as §1, §2, §3

Candida tropicalis = experiment: Radial diffusion assay, Candida species (Table 2); format: cell-based
Experimental: as §1, §2, §3

[1] = test system: C. albicans (SLU-1 and other strains); format: cell-based, Candida albicans
Experimental: In additional experiments, a fluorescence-activated cell sorter (FACS) based assay was developed to test the fungicidal activity of the peptides. […] Difco) agar. Several colonies were picked from the agar plate and inoculated into 5 mL of Sabouraud's Dextrose media in a sterile 10 mL polypropylene tube. The fungal cultures were incubated for about 18 hours at 30° C. […] The culture were centrifuged at 3000 rpm for 5 minutes (Sorvall RT 6000B). After centrifugation, the supernatant was decanted leaving the fungal pellets in the centrifuge tubes. The pellets were resuspended in 15 mL of SDB. Both suspensions were combined into one tube and mixed to generate a stock culture. […] After determining the concentration of the stock, appropriate dilutions were made with Sabouraud's Dextrose media to obtain 100 mL of 1×10^6 cell/mL. […] After the 1 hour incubation, all the tubes were centrifuged at 3000 rpm for 5 minutes. […] Louis, Mo.) in Dulbecco's PBS (DPBS, GIBCO, Grand Island, N.Y.) except the autofluorescence control, which was resuspended in DPBS alone. The tubes were mixed and incubated in the dark at room temperature for at least 20 minutes. […] The settings were adjusted appropriately to the following approximate parameters: Cells were analyzed (10,000 cells/tube) and their respective fluorescence determined. […] The population of dead (i.e., propidium iodide stained) fungal cells was determined by a fluorescence threshold between the negative control and positive control.

Candida albicans SLU-1 = experiment: Survival of cyclosporin A-immunosuppressed mice systemically infected with Candida albicans; format: in vivo, mouse; settings: cyclosporin A 10 mg/kg i.p.; 2×10^5 Candida cells; peptide 10 mg/kg, 6 doses; FIG. 7
Experimental: Studies were also performed to determine the effectiveness of representative anti-fungal peptides in cyclosporin A-immunosuppressed mice systemically infected with Candida albicans SLU-1. Groups (15 animals/group) of 9 week-old male DBA/2J mice were immunosuppressed by pretreatment with 10 mg/kg (Day-1) of cyclosporin A administered by intraperitoneal injection. One day later (Day 0), the mice were inoculated with 2×10^5 Candida cells by intravenous injection in the tail vein. Immediately after fungal challenge, the mice were treated with a 0.1 mL volume of 10 mg/kg XMP.284, 10 mg/kg XMP.127, or PBS as a control. Cyclosporin A injections were repeated at Day 1. Day 3. Day 7, and Day 9. XMP.284, XMP.127 or PBS injections were repeated at Day 2, Day 4, Day 6, Day 8 and Day 10. […]. […] However.

[2] = test system: Trychophyton rubrum ATCC 28188; experiment: organism not typed; format: cell-based
Experimental: The anti-fungal activity of Domain III derived peptides was evaluated against a variety of fungal species, including species of Candida. Cryptococcus, Fusarium, Trichophyton, and Aspergillus, by an additional assay protocol utilizing Alamar Blue. Alamar Blue is an indicator dye formulated to measure quantitatively the proliferation of a variety of human or animal cells, bacteria, or fungi. It consists of an oxidation-reduction (REDOX) indicator that yields a colorimetric change in response to metabolic activity. For these experiments, species of Candida and Cryptococcus were grown in Sabouraud's dextrose broth (SDB) overnight. Strains of filamentous fungi (Aspergilius, Fusanum, Trichophyton) were obtained by irrigation of a confluent culture from a petri dish. Cells were washed and adjusted to a concentration of 5.0×10^3/mL in fresh SDB. […] Controls included amphotericin B, fluconazole, ketoconazole and griseofulvin. Antifungal drugs were also diluted in the same manner. Assays were performed in 96-well microuiter plates. […] The wells to be plated were determined by OD590 readings. The lowest concentration of peptide which maintained the blue color (or OD reading) of the blank was chosen along with the next two higher concentrations. Plates were allowed to grow for 18-48 hours depending on the rate of growth of each fungus. Minimal fungicidal activity (MFC) was determined as a 99.9% killing of the starting inoculum.

| Molecule | Anti-fungal activity: pmol/30 mm^2 zone, Candida lusitaniae (Candida lusitaniae) [pmol/30 mm^2 zone] | Anti-fungal activity: pmol/30 mm^2 zone, Candida krusei (Candida krusei) | Anti-fungal activity: pmol/30 mm^2 zone, Candida parapsilosis (Candida parapsilosis) | Anti-fungal activity: pmol/30 mm^2 zone, Candida glabrata (Candida glabrata) | Anti-fungal activity: pmol/30 mm^2 zone, Candida tropicalis (Candida tropicalis) [pmol/30 mm^2 zone] | Activity on various strains of C. albicans, IC50, 10231 ([1]; SLU-1 and other strains) [µg/mL] | Activity on various strains of C. albicans, IC50, 14053 ([1]; SLU-1 and other strains) [µg/mL] | Activity on various strains of C. albicans, IC50, 26555 ([1]; SLU-1 and other strains) [µg/mL] | Activity on various strains of C. albicans, IC50, 90028 ([1]; SLU-1 and other strains) [µg/mL] | Activity on various strains of C. albicans, IC50, SLU#1 ([1]; SLU-1 and other strains) [µg/mL] | protection against infection, survival compared with PBS controls (Candida albicans SLU-1) | Minimum Fungicidal Concentration, Trychophyton rubrum ATCC 28188 ([2]; ATCC 28188) [µg/mL] | Activity of peptides on C. albicans SLU-1, IC50 ([1]; Table 5, percentage of dead cells, 1 hour, 30° C.) [µg/mL] | Minimum Fungicidal Concentration, Trychophyton rubrum ATCC 28188 [2] [µg/mL] |
| --- | --- | --- | --- | --- | --- | --- | --- | --- | --- | --- | --- | --- | --- | --- |
| H-KSKVGWLIQLFHKK-NH2 [XMP.13] | 746 | 1,747 pmol/30 mm^2 zone | 1,502 pmol/30 mm^2 zone | 1,022 pmol/30 mm^2 zone | 452 |  |  |  |  |  |  |  |  |  |
| H-SKVKWLIQLFHKK-NH2 [XMP.284] |  |  |  |  |  | 1.86 | 0.50 | 0.59 | 1.08 | 0.31 | provided protection | 5.0 |  |  |
| C[C@@H]1[C@H](O)[C@@H](C)/C=C/C=C/C=C/C=C/C=C/C=C/C=C/[C@H](O[C@@H]2O[C@H](C)[C@@H](O)[C@H](N)[C@@H]2O)C[C@@H]2O[C@](O)(C[C@@H](O)C[C@@H](O)[C@H](O)CC[C@@H](O)C[C@@H](O)CC(=O)O[C@H]1C)C[C@H](O)[C@H]2C(=O)O [Amphotericin B, amphotericin B, reference compound] | 35 | 120 pmol/30 mm^2 zone | 91 pmol/30 mm^2 zone | <17 pmol/30 mm^2 zone | 108 |  |  |  |  |  | protected |  | 79.36 | 0.32 |
